Source: the NIST ThermoML archive (doi:10.1021/je300603d)
± gives the expanded uncertainty stated by the source.

Tests used:
[1] = mn = molality of the nth substance listed, in mol/kg; settings: 101 kPa, Liquid, m2 = 0; for electrical conductivity: Alternating current cell with electrodes; for viscosity: Falling or rolling sphere viscometry; for mass density: Vibrating tube method
[2] = 101 kPa, Liquid; for electrical conductivity: Alternating current cell with electrodes; for viscosity: Falling or rolling sphere viscometry; for mass density: Vibrating tube method

CCCCn1cc[n+](C)c1.F[B-](F)(F)F [1-butyl-3-methylimidazolium tetrafluoroborate] + F[B-](F)(F)F.[Na+]
electrical conductivity ([1]; 238.15 K): 0.00095 ± 1e-05 S/m
electrical conductivity ([1]; 258.15 K): 0.0227 ± 0.0001 S/m
electrical conductivity ([1]; 278.15 K): 0.113 ± 0.001 S/m
viscosity ([1]; 278.15 K): 384.5 ± 26 mPa·s
mass density ([1]; 278.15 K): 1216.3 ± 0.4 kg/m3
viscosity ([1]; 288.15 K): 197.7 ± 9.2 mPa·s
mass density ([1]; 288.15 K): 1209 ± 0.4 kg/m3
electrical conductivity ([1]; 298.15 K): 0.353 ± 0.002 S/m
viscosity ([1]; 298.15 K): 112.3 ± 3.1 mPa·s
mass density ([1]; 298.15 K): 1201.8 ± 0.4 kg/m3
viscosity ([1]; 308.15 K): 68.89 ± 0.84 mPa·s
mass density ([1]; 308.15 K): 1194.6 ± 0.4 kg/m3
electrical conductivity ([1]; 318.15 K): 0.826 ± 0.004 S/m
viscosity ([1]; 318.15 K): 45.36 ± 0.46 mPa·s
mass density ([1]; 318.15 K): 1187.6 ± 0.4 kg/m3
viscosity ([1]; 328.15 K): 31.49 ± 0.32 mPa·s
mass density ([1]; 328.15 K): 1180.6 ± 0.4 kg/m3
electrical conductivity ([1]; 338.15 K): 1.548 ± 0.008 S/m
viscosity ([1]; 338.15 K): 21.99 ± 0.22 mPa·s
mass density ([1]; 338.15 K): 1173.6 ± 0.4 kg/m3
viscosity ([1]; 348.15 K): 16.54 ± 0.17 mPa·s
mass density ([1]; 348.15 K): 1166.7 ± 0.4 kg/m3
electrical conductivity ([1]; 358.15 K): 2.53 ± 0.01 S/m
viscosity ([1]; 358.15 K): 12.84 ± 0.13 mPa·s
mass density ([1]; 358.15 K): 1159.9 ± 0.4 kg/m3
electrical conductivity ([1]; 378.15 K): 3.74 ± 0.02 S/m
electrical conductivity ([1]; 398.15 K): 5.13 ± 0.03 S/m
electrical conductivity ([1]; 418.15 K): 6.68 ± 0.03 S/m
electrical conductivity ([1]; 438.15 K): 8.36 ± 0.04 S/m
electrical conductivity ([1]; 458.15 K): 10.13 ± 0.05 S/m

CCCCn1cc[n+](C)c1.F[B-](F)(F)F [1-butyl-3-methylimidazolium tetrafluoroborate]
electrical conductivity ([2]; 238.15 K): 0.00095 ± 1e-05 S/m
electrical conductivity ([2]; 258.15 K): 0.0227 ± 0.0001 S/m
electrical conductivity ([2]; 278.15 K): 0.113 ± 0.001 S/m
viscosity ([2]; 278.15 K): 384.5 ± 26 mPa·s
mass density ([2]; 278.15 K): 1216.3 ± 0.4 kg/m3
viscosity ([2]; 288.15 K): 197.7 ± 9.2 mPa·s
mass density ([2]; 288.15 K): 1209 ± 0.4 kg/m3
electrical conductivity ([2]; 298.15 K): 0.353 ± 0.002 S/m
viscosity ([2]; 298.15 K): 112.3 ± 3.1 mPa·s
mass density ([2]; 298.15 K): 1201.8 ± 0.4 kg/m3
viscosity ([2]; 308.15 K): 68.89 ± 0.84 mPa·s
mass density ([2]; 308.15 K): 1194.6 ± 0.4 kg/m3
electrical conductivity ([2]; 318.15 K): 0.826 ± 0.004 S/m
viscosity ([2]; 318.15 K): 45.36 ± 0.46 mPa·s
mass density ([2]; 318.15 K): 1187.6 ± 0.4 kg/m3
viscosity ([2]; 328.15 K): 31.49 ± 0.32 mPa·s
mass density ([2]; 328.15 K): 1180.6 ± 0.4 kg/m3
electrical conductivity ([2]; 338.15 K): 1.548 ± 0.008 S/m
viscosity ([2]; 338.15 K): 21.99 ± 0.22 mPa·s
mass density ([2]; 338.15 K): 1173.6 ± 0.4 kg/m3
viscosity ([2]; 348.15 K): 16.54 ± 0.17 mPa·s
mass density ([2]; 348.15 K): 1166.7 ± 0.4 kg/m3
electrical conductivity ([2]; 358.15 K): 2.53 ± 0.01 S/m
viscosity ([2]; 358.15 K): 12.84 ± 0.13 mPa·s
mass density ([2]; 358.15 K): 1159.9 ± 0.4 kg/m3
electrical conductivity ([2]; 378.15 K): 3.74 ± 0.02 S/m
electrical conductivity ([2]; 398.15 K): 5.13 ± 0.03 S/m
electrical conductivity ([2]; 418.15 K): 6.68 ± 0.03 S/m
electrical conductivity ([2]; 438.15 K): 8.36 ± 0.04 S/m
electrical conductivity ([2]; 458.15 K): 10.13 ± 0.05 S/m
